We go through one compound from article PMC6193938, “Characterization of a novel AICARFT inhibitor which potently elevates ZMP and has anti-tumor activity in murine models” (Scientific Reports, 2018).

Broadly, the inhibition is the drop in the measured response relative to a control, in per cent.

Holding throughout (assay): CEREP protein kinase assay
Holding throughout (format): biochemical

One experiment has as its target T1, PDK1 (Homo sapiens, UniProt O15530).
T1 construct: purchased CEREP Panlabs (Eurofins)
T1 sequence (O15530 1-556): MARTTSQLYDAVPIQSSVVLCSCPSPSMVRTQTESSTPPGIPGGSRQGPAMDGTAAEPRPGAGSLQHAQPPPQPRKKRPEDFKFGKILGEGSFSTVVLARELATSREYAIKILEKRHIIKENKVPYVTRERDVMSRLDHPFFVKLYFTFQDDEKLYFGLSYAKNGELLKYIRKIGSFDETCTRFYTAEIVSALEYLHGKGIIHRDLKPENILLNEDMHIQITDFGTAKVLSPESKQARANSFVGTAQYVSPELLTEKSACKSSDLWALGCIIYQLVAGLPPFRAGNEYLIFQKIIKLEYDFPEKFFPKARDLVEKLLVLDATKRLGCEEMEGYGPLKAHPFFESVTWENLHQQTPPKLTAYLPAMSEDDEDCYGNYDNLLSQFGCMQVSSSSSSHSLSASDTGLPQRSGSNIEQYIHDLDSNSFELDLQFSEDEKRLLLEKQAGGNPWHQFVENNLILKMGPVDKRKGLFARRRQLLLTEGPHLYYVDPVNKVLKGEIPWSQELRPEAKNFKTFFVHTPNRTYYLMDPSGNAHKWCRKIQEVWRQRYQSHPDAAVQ

A further experiment has as its target T2, TBK1 (Homo sapiens, UniProt Q9UHD2).
T2 construct: purchased CEREP Panlabs (Eurofins)
T2 sequence (Q9UHD2 1-729): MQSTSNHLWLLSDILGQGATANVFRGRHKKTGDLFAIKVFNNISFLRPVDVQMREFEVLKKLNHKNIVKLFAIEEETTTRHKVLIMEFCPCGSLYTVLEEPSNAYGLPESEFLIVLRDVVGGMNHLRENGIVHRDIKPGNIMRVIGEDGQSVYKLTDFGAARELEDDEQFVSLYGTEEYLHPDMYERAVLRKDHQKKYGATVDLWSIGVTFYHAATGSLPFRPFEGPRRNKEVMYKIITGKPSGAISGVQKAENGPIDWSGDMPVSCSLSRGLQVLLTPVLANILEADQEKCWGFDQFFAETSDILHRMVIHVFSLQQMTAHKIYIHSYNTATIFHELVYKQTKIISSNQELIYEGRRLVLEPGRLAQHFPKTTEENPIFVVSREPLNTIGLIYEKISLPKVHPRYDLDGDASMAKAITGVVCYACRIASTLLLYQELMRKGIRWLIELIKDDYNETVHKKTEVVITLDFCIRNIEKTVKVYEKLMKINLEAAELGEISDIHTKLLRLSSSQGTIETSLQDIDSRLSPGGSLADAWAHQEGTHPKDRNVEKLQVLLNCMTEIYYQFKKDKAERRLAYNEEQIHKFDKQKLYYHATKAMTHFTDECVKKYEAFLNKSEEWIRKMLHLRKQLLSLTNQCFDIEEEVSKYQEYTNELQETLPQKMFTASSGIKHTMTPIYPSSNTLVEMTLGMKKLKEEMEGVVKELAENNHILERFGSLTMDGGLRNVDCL

The target in the next experiment is T3, JAK3 (Homo sapiens, UniProt P52333).
T3 construct: purchased CEREP Panlabs (Eurofins)
T3 sequence (P52333 1-1124): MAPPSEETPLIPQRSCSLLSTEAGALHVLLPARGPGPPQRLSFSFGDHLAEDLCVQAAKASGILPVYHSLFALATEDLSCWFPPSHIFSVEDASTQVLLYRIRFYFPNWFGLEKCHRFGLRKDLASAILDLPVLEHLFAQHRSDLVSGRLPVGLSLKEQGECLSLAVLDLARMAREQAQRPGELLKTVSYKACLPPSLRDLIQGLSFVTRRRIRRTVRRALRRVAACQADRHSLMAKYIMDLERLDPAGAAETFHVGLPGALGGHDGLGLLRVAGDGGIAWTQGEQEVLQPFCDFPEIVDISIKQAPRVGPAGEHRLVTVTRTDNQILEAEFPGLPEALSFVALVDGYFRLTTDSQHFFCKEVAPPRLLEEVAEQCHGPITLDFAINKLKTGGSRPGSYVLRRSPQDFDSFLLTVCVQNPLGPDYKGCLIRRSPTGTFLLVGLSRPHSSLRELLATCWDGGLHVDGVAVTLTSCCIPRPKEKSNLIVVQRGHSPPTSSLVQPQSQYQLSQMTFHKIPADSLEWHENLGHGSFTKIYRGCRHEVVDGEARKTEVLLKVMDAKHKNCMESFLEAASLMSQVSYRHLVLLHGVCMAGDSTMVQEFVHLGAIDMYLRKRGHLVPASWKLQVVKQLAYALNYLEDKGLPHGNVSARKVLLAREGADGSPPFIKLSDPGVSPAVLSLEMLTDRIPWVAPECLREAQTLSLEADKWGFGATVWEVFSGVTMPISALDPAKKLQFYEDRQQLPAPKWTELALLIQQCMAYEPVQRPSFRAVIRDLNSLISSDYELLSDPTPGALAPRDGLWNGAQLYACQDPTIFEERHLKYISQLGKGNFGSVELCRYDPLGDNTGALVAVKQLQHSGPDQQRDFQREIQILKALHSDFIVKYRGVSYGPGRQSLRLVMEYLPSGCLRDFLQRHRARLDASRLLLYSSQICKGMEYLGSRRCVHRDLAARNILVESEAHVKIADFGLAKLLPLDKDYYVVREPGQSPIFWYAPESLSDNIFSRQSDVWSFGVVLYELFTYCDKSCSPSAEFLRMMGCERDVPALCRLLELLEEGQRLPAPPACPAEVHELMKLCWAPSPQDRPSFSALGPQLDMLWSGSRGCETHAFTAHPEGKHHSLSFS

For another experiment, the target named is T4, IRAK1 (Homo sapiens, UniProt P51617).
T4 construct: purchased CEREP Panlabs (Eurofins)

The target in another experiment is T5, AURA (Homo sapiens, UniProt O14965).
T5 construct: purchased CEREP Panlabs (Eurofins)
T5 sequence (O14965 1-403): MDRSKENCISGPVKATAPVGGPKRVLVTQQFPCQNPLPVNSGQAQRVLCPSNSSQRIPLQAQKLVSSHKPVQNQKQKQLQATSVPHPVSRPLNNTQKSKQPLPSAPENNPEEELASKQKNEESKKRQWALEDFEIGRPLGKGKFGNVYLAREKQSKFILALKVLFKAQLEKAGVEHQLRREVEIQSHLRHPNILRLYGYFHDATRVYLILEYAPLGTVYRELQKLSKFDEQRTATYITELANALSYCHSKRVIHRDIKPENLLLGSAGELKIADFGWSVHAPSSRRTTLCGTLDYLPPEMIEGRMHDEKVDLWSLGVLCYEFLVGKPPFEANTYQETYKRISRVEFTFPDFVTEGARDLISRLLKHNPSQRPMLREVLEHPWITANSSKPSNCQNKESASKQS

T4 sequence (P51617 whole entry): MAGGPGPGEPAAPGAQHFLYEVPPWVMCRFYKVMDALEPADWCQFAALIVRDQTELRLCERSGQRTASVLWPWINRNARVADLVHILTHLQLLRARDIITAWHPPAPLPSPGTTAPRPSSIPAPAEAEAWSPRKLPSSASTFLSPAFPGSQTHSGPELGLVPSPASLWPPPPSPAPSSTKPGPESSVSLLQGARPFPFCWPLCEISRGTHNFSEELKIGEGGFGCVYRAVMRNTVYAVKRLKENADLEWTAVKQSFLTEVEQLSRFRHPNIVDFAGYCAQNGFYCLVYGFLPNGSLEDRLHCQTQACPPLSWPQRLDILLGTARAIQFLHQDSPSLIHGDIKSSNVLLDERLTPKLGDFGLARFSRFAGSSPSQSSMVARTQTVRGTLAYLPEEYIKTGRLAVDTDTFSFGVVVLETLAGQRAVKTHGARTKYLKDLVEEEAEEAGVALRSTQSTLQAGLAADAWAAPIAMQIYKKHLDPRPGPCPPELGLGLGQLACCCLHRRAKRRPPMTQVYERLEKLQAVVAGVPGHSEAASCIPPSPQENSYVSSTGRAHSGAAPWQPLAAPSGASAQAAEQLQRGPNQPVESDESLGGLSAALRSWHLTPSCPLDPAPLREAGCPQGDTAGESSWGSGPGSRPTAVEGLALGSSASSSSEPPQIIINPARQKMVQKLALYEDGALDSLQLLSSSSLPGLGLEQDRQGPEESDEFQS

For `O=c1[nH]ccc2cc(F)c(NS(=O)(=O)c3ccc(N4CC[C@@H](O)C4)s3)cc12` [LSN3213128, N-(6-Fluoro-1-oxo-1,2-dihydroisoquinolin-7-yl)-5-[(3R)-3-hydroxypyrrolidin-1-yl]thiophene-2-sulfonamide], the inhibition at 0.2 µM is 14.1% against PDK1 (@ 0.2 uM); -3.62% at TBK1 (@ 0.2 uM); -5.81% on JAK3 (@ 0.2 uM); -0.781% against IRAK1 (@ 0.2 uM); -4.11% at AURA (@ 0.2 uM). In addition, the inhibition at 2 µM on PDK1 (@ 2 uM) is 15.8%; against TBK1 (@ 2 uM) it was 13.1%; against JAK3 (@ 2 uM) it was 2.78%; against IRAK1 (@ 2 uM), 4.26%; at AURA (@ 2 uM) it was 1.86%. For the same compound, the inhibition at 20 µM against PDK1 (@ 20 uM) came out at 26.8%; against TBK1 (@ 20 uM), 11%; against JAK3 (@ 20 uM), 28.6%; on IRAK1 (@ 20 uM) it was 42.2%; against AURA (@ 20 uM), 4.28%.
